# Several values for one entry are separate records, joined by “and”; a condition that tells them apart may be missing. Identical values can stand only once.
# Tests used:
# Urease = Urease activity of urea amended soil, 38° C., 24 hrs; type: biochemical
# Procedure: Urease activity: Five grams (5 g) oven-dry soil is treated with 5 ml of aqueous urea solution (1000 ug/g soil), with or without the test compound, and incubated in 65 ml screw-capped glass bottles at 38° C. for 24 hrs. Three replicates of each treatment are established. Phenylphosphorodiamide (PPD) is used as a urease inhibitor for comparison with Maduramicin monoammonium salt. Urea remaining is determined after extracting the soil for 60 minutes (with shaking) with 50 ml of 2M KCl containing 0.5 ug/ml of phenylmercuric acetate and filtering the soil suspension. Urea in the extract is determined colorimetrically (Douglas & Bremner, 1970). The percentage inhibition is calculated from (A-B)/(C-B) X 100-% inhibition; where A=the amount of urea found after incubation with the compound, B=the amount of urea found in the non-treated soil, and C=the amount of urea added.
# Nitrosomonas spp. = test: Nitrification of ammonium in soil incubated at 25° C. (ammonium recovery, nitrate accumulation); conditions: soil 25° C.; for Nitrification (percent nitrified) / Concentration of nitrate nitrogen / Recovery of Ammonium Nitrogen: 0.50 ppm; for Concentration of nitrate nitrogen / Recovery of Ammonium Nitrogen: 200 ppm N
# Summary of the method: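 Silt loam soil (100 g, low residual N) at 50% water saturation given ammonium sulfate at 200 ppm N plus test compound at 0.10–0.50 ppm, duplicates, incubated 25 °C for up to 20 weeks. Inorganic N extracted with 2M KCl; ammonium, nitrite and nitrate measured by steam distillation.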
# Nitrobacter spp. = test: Nitrite nitrogen in ammonium amended soil incubated at 25° C.; conditions: 0.50 ppm, soil 25° C., 200 ppm N
# Procedure: Determination of nitrite nitrogen and nitrate nitrogen in soil prepared in Example 1 above, which is amended with 200 ppm of nitrogen as aqueous ammonium sulfate, […], is determined using the nitrite and nitrate analysis of the American Organization of Analytical Chemists (AOAC pp. 653-655).
# Nitrosomonos = test: Nitrification of ammonium amended field soil incubated at 38° C. (ammonium recovery, nitrate); conditions: 0.50 ppm, soil 38° C., 200 ppm N
# Procedure: (§1) Determination of Nitrification Inhibition of Soil amended with 200 ppm of nitrogen as ammonium sulfate and 0.5 ppm of Nitrapyrin or 0.5 ppm of Maduramicin, monoammonium salt.
# (§2) Soil samples prepared as described in Example 1 above are incubated at 38° C. for 20 weeks. Samples are taken at intervals during the 20 week period, extracted with 2M KCl (10:1 v/w), and assayed for ammonium nitrite and nitrate by standard steam distillation methods.
# Nitrabacter = test: Nitrite in ammonium amended field soil incubated at 38° C.; conditions: 0.50 ppm, soil 38° C., 200 ppm N
# Procedure: as §1, §2
# [1] = system: corn (Dekalb T2000, B73×LH 38); test: Field evaluation: corn ear leaf tissue nitrogen, silt loam plots; type: in vivo; conditions: for Corn Leaf Tissue Analysis (total N): inhibitor 0.56 kg/ha, ear leaf at silking
# Excerpt: (§3) Field Evaluation: Field evaluations are based on the N content of corn leaf tissue and grain yield utilizing two soil types. Replicate (4X) field plots are established at two different locations, one having (I) silt loam soil and one (II) with sandy loam soil. These soils had been previously cropped to non-fertilized corn to reduce the level of residual N. Maduramicin monoammonium salt is applied (0.25, 0.125, 0.07 ppm) with NH3 (84 or 168 kg N/ha) through a "downstream" by an injection system into silt loam plots. Nitrapyrin (0.25 ppm=0.56 kg a.i./ha), nitrogen checks, benzyl alcohol (1.16L/ha) (BA) and a O nitrogen check are included for comparison. Individual replicate plot sizes are 3.04M×22.8M (4, 76-cm corn rows×22.8M long) Anhydrous ammonia are injected on 76-cm centers.
# (§4) Urea, treated or non-treated with Maduramicin monoammonium salt is broadcast on the surface of sandy loam plots. Plots are then planted with corn the day following treatment. Dekalb T2000 is planted 10 May on silt loam plots and Pioneer 3352 is planted 11 May in sandy loam plots.
# (§5) Corn ear leaf tissues collected at silking on silt loam plots or 60 days post silking (on silt loam and sandy loam plots) are collected from each plot and assayed for total N (AOAC procedures). Grain yields are determined by harvesting the two center rows×15.2 m of each plot.
# [2] = system: corn (Dekalb T2000, B73×LH 38); test: Field evaluation: yield of corn, silt loam location; type: in vivo; conditions: chemical 0.56 kg/ha
# Excerpt: as §3, §4, §5
# corn (Pioneer 3352) = test: Field evaluation: yield of corn, sandy loam plots; type: in vivo; conditions: sandy loam, chemical 0.56 kg/ha
# Excerpt: as §3
# Plots are then planted with corn the day following treatment. Dekalb T2000 is planted 10 May on silt loam plots and Pioneer 3352 is planted 11 May in sandy loam plots.
# as §5
structure (smiles),measurement,setting,value
"NP(N)(=O)Oc1ccccc1 [PPD, Phenylphosphorodiamide]",% INHIBITION (urease),"Urease; (A-B)/(C-B) X 100, urea 1000 ug/g soil",63%
same,AVERAGE amount of urea remaining,"Urease; average of 3 replicates, urea 1000 ug/g soil",769 µg/g
same,AMOUNT REMAINING (urea),"Urease; single replicates, urea 1000 ug/g soil",755 µg/g and 767 µg/g and 770 µg/g
Clc1cccc(C(Cl)(Cl)Cl)n1 [Nitrapyrin],Nitrification (percent nitrified),Nitrosomonas spp.; by the 16th week,65%
same,Nitrification (percent nitrified),Nitrosomonas spp.; by the 20th week,87%
same,Time through which nitrification is delayed or inhibited,Nitrosomonas spp.; 0.5 ppm,12 weeks
same,Concentration of nitrate nitrogen,Nitrosomonas spp.; week 0,18 PPM
same,Recovery of Ammonium Nitrogen,Nitrosomonas spp.; week 0,193 PPM
same,Concentration of nitrate nitrogen,Nitrosomonas spp.; week 1,11 PPM
same,Recovery of Ammonium Nitrogen,Nitrosomonas spp.; week 1,155 PPM
same,Concentration of nitrate nitrogen,Nitrosomonas spp.; week 2,23 PPM
same,Recovery of Ammonium Nitrogen,Nitrosomonas spp.; week 2,177 PPM
same,Concentration of nitrate nitrogen,Nitrosomonas spp.; week 4,21 PPM
same,Recovery of Ammonium Nitrogen,Nitrosomonas spp.; week 4,185 PPM
same,Concentration of nitrate nitrogen,Nitrosomonas spp.; week 7,25 PPM
same,Recovery of Ammonium Nitrogen,Nitrosomonas spp.; week 7,188 PPM
same,Concentration of nitrate nitrogen,Nitrosomonas spp.; week 9,39 PPM
same,Recovery of Ammonium Nitrogen,Nitrosomonas spp.; week 9,174 PPM
same,Concentration of nitrate nitrogen,Nitrosomonas spp.; week 12,49 PPM
same,Recovery of Ammonium Nitrogen,Nitrosomonas spp.; week 12,184 PPM
same,Concentration of nitrate nitrogen,Nitrosomonas spp.; week 16,148 PPM
same,Recovery of Ammonium Nitrogen,Nitrosomonas spp.; week 16,70 PPM
same,Concentration of nitrate nitrogen,Nitrosomonas spp.; week 20,163 PPM
same,Recovery of Ammonium Nitrogen,Nitrosomonas spp.; week 20,25 PPM
same,Concentration of nitrite nitrogen,Nitrobacter spp.; week 0,6 ppm
same,Concentration of nitrite nitrogen,Nitrobacter spp.; week 1,6 ppm
same,Concentration of nitrite nitrogen,Nitrobacter spp.; week 2,3 ppm
same,Concentration of nitrite nitrogen,Nitrobacter spp.; week 4,5 ppm
same,Concentration of nitrite nitrogen,Nitrobacter spp.; week 7,-1 ppm
same,Concentration of nitrite nitrogen,Nitrobacter spp.; week 9,8 ppm
same,Concentration of nitrite nitrogen,Nitrobacter spp.; week 12,-10 ppm
same,Concentration of nitrite nitrogen,Nitrobacter spp.; week 16,15 ppm
same,Concentration of nitrite nitrogen,Nitrobacter spp.; week 20,34 ppm
same,"Ammonium Recovery, reported as nitrogen",Nitrosomonos; week 0,194 ppm
same,"Nitrate, reported as nitrogen",Nitrosomonos; week 0,20 ppm
same,"Ammonium Recovery, reported as nitrogen",Nitrosomonos; week 1,188 ppm
same,"Nitrate, reported as nitrogen",Nitrosomonos; week 1,18 ppm
same,"Ammonium Recovery, reported as nitrogen",Nitrosomonos; week 2,195 ppm
same,"Nitrate, reported as nitrogen",Nitrosomonos; week 2,15 ppm
same,"Ammonium Recovery, reported as nitrogen",Nitrosomonos; week 4,200 ppm
same,"Nitrate, reported as nitrogen",Nitrosomonos; week 4,22 ppm
same,"Ammonium Recovery, reported as nitrogen",Nitrosomonos; week 7,179 ppm
same,"Nitrate, reported as nitrogen",Nitrosomonos; week 7,48 ppm
same,"Ammonium Recovery, reported as nitrogen",Nitrosomonos; week 9,141 ppm
same,"Nitrate, reported as nitrogen",Nitrosomonos; week 9,79 ppm
same,"Ammonium Recovery, reported as nitrogen",Nitrosomonos; week 12,125 ppm
same,"Nitrate, reported as nitrogen",Nitrosomonos; week 12,114 ppm
same,"Ammonium Recovery, reported as nitrogen",Nitrosomonos; week 16,127 ppm
same,"Nitrate, reported as nitrogen",Nitrosomonos; week 16,126 ppm
same,"Ammonium Recovery, reported as nitrogen",Nitrosomonos; week 20,91 ppm
same,"Nitrate, reported as nitrogen",Nitrosomonos; week 20,128 ppm
same,"Nitrite, reported as nitrogen",Nitrabacter; week 0,6 ppm
same,"Nitrite, reported as nitrogen",Nitrabacter; week 1,3 ppm
same,"Nitrite, reported as nitrogen",Nitrabacter; week 2,12 ppm
same,"Nitrite, reported as nitrogen",Nitrabacter; week 4,9 ppm
same,"Nitrite, reported as nitrogen",Nitrabacter; week 7,-27 ppm
same,"Nitrite, reported as nitrogen",Nitrabacter; week 9,14 ppm
same,"Nitrite, reported as nitrogen",Nitrabacter; week 12,14 ppm
same,"Nitrite, reported as nitrogen",Nitrabacter; week 16,7 ppm
same,"Nitrite, reported as nitrogen",Nitrabacter; week 20,27 ppm
same,Corn Leaf Tissue Analysis (total N),[1]; NH3 84 kg N/ha,232 10^2 ug/g
same,Corn Leaf Tissue Analysis (total N),[1]; NH3 168 kg N/ha,291 10^2 ug/g
same,More nitrogen in leaf tissue than control plots with similar nitrogen,[1]; silt loam plots,15-25%
same,AVERAGE YIELD 4-REPLICATES,[2]; N 84 kg/ha,133.4 HECTOLITERS/HECTARE
same,AVERAGE YIELD 4-REPLICATES,[2]; N 168 kg/ha,148.8 HECTOLITERS/HECTARE
same,AVERAGE YIELD 4-REPLICATES,corn (Pioneer 3352); N 84 kg/ha as NH3,160.1 HECTOLITERS/HECTARE
same,AVERAGE YIELD 4-REPLICATES,corn (Pioneer 3352); N 168 kg/ha as NH3,167.0 HECTOLITERS/HECTARE

# From US4746349A, “Method and compositions for suppressing the nitrification of ammonium in plant growth medium” (American Cyanamid Company, priority 1986, dated 1988)
